Earlier results, collected in US12268783B2, “Platform drug delivery system utilizing crystal engineering and theanine dissolution” (THEAPRIN PHARMACEUTICALS, INC., priority 2015, dated 2025).

Tests used:
[1] = in humans (so in the source)
[2] = test system: human dopaminergic cell line SH-SY5Y; conditions: SH-SY5Y cultures subjected to rotenone and dieldrin, treated or pre-treated with L-Theanine
[3] = test system: APP (Swedish Mutation) transgenic SH-SY5Y cell; conditions: via inhibition of the NMDA receptor pathway
rat brain regions = conditions: rat cerebral cortex, hippocampus and cerebellum
cancer cells = conditions: without an increase in DOX-induced side effects
[4] = test system: human red blood cells (RBC) exposed to venom or purified venom porin; conditions: RBC exposed to total venom or purified porin

For `CCNC(=O)CC[C@H](N)C(=O)O` [Theanine, 5-N-ethyl-glutamine], the LD50 toxicity [1] is given as greater than 5000 mg/kg, the “DNA fragmentation and apoptotic cell death” value [2] is given as “decreased DNA fragmentation and apoptotic cell death” and the “protection against glutamate-induced excitotoxicity” value [3] is given as “protects”. For the same compound, the “protective effect against aluminum-induced neurotoxicity” value (rat brain regions) was “counteracting the damage inflicted by aluminum” and the “effect on antitumor activity of doxorubicin (DOX)” value (cancer cells) was “enhances the antitumor activity of doxorubicin”.

In the case of zinc gluconate, the “potassium efflux from RBC” value [4] is given as “inhibited potassium efflux”.
